Reference: article PMC9067983, “Identification of highly selective type II kinase inhibitors with chiral peptidomimetic tails” (Journal of Enzyme Inhibition and Medicinal Chemistry, 2022)
Where a SMILES comes first, the peptide text is derived from it. [ ]: non-standard residue; d: D form. The star is where a group is joined. X1 = Cc1ccc(Nc2ncc3c(n2)N(C)C(=O)N(c2cc(C(=O)*)ccc2C)C3)cn1; Aib = CC(C)(N)C(=O)O

How the values were obtained:
Test in all cases: kinase selectivity profiling
Format in all cases: biochemical
Conditions in all cases: 10µM ATP, read-out: % inhibition (relative to DMSO)
Abl1 = molecular target: T1, Abl1 (Homo sapiens, UniProt P00519)
T1 construct: purchased Reaction Biology Corp
Procedure: (§1) Full panel kinase profiling and kinase IC50 measurement were performed by using Reaction Biology Corp. (San Diego, USA).

Aurora A = molecular target: T2, Aurora A (Homo sapiens, UniProt O14965)
T2 construct: purchased Reaction Biology Corp
Procedure: as §1

BRK = molecular target: T3, BRK (Homo sapiens, UniProt Q13882)
T3 construct: purchased Reaction Biology Corp
T3 sequence (Q13882 whole entry): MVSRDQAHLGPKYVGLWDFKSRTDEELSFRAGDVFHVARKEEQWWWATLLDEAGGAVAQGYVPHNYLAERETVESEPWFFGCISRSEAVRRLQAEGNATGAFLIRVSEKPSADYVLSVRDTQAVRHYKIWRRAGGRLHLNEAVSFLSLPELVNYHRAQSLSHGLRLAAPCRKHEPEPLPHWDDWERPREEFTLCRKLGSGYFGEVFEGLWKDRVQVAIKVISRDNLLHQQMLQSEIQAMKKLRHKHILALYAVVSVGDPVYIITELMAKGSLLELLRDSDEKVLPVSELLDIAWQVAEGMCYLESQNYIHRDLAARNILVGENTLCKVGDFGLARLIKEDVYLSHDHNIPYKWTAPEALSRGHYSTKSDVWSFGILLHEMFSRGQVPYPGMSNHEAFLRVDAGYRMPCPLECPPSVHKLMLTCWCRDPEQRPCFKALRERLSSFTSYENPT
Procedure: as §1

CAMK1g = molecular target: T4, CAMK1g (Homo sapiens, UniProt Q96NX5)
T4 construct: purchased Reaction Biology Corp
Procedure: as §1

CDC7/DBF4 = molecular target: T5, CDC7/DBF4 (Homo sapiens, UniProt O00311)
T5 construct: purchased Reaction Biology Corp
Procedure: as §1

CDK2/Cyclin A1 = molecular target: T6, CDK2/Cyclin A1 (Homo sapiens, UniProt P24941)
T6 construct: purchased Reaction Biology Corp
Procedure: as §1

CDK2/cyclin E = molecular target: T7, CDK2/cyclin E (Homo sapiens, UniProt P24941)
T7 construct: purchased Reaction Biology Corp
Procedure: as §1

CDK5/P25 = molecular target: T8, CDK5/P25 (Homo sapiens, UniProt Q00535)
T8 construct: purchased Reaction Biology Corp
Procedure: as §1

CK1a1L = molecular target: T9, CK1a1L (Homo sapiens, UniProt Q8N752)
T9 construct: purchased Reaction Biology Corp
T9 sequence (Q8N752 whole entry): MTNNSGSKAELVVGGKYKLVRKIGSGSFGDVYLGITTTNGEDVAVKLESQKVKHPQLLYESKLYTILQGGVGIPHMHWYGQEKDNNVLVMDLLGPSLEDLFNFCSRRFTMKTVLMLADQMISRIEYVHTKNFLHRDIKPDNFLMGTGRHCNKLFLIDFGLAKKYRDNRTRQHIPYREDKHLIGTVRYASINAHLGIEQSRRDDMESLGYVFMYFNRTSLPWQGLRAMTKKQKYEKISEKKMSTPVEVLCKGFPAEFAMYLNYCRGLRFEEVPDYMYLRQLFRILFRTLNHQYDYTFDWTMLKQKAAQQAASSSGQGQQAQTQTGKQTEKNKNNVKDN
Procedure: as §1

CK2a = molecular target: T10, CK2a (Homo sapiens, UniProt P68400)
T10 construct: purchased Reaction Biology Corp
Procedure: as §1

EPHA4 = molecular target: T11, EPHA4 (Homo sapiens, UniProt P54764)
T11 construct: purchased Reaction Biology Corp
Procedure: as §1

EPHA5 = molecular target: T12, EPHA5 (Homo sapiens, UniProt P54756)
T12 construct: purchased Reaction Biology Corp
Procedure: as §1

ERBB2/HER2 = molecular target: T13, ERBB2/HER2 (Homo sapiens, UniProt P04626)
T13 construct: purchased Reaction Biology Corp
Procedure: as §1

ERK1 = molecular target: T14, ERK1 (Homo sapiens, UniProt P27361)
T14 construct: purchased Reaction Biology Corp
Procedure: as §1

FLT1/VEGFR1 = molecular target: T15, FLT1/VEGFR1 (Homo sapiens, UniProt P17948)
T15 construct: purchased Reaction Biology Corp
Procedure: as §1

FRK/PTK5 = molecular target: T16, FRK/PTK5 (Homo sapiens, UniProt P42685)
T16 construct: purchased Reaction Biology Corp
Procedure: as §1

GRK2 = molecular target: T17, GRK2 (Homo sapiens, UniProt P25098)
T17 construct: purchased Reaction Biology Corp
Procedure: as §1

GRK7 = molecular target: T18, GRK7 (Homo sapiens, UniProt Q8WTQ7)
T18 construct: purchased Reaction Biology Corp
Procedure: as §1

HCK = molecular target: T19, HCK (Homo sapiens, UniProt P08631)
T19 construct: purchased Reaction Biology Corp
Procedure: as §1

IRR/INSRR = molecular target: T20, IRR/INSRR (Homo sapiens, UniProt P14616)
T20 construct: purchased Reaction Biology Corp
Procedure: as §1

MAPKAPK5/PRAK = molecular target: T21, MAPKAPK5/PRAK (Homo sapiens, UniProt Q8IW41)
T21 construct: purchased Reaction Biology Corp
Procedure: as §1

MARK1 = molecular target: T22, MARK1 (Homo sapiens, UniProt Q9P0L2)
T22 construct: purchased Reaction Biology Corp
Procedure: as §1

MARK4 = molecular target: T23, MARK4 (Homo sapiens, UniProt Q96L34)
T23 construct: purchased Reaction Biology Corp
Procedure: as §1

MEKK1 = molecular target: T24, MEKK1 (Homo sapiens, UniProt Q13233)
T24 construct: purchased Reaction Biology Corp
Procedure: as §1

MEKK3 = molecular target: T25, MEKK3 (Homo sapiens, UniProt Q99759)
T25 construct: purchased Reaction Biology Corp
Procedure: as §1

MLCK2/MYLK2 = molecular target: T26, MLCK2/MYLK2 (Homo sapiens, UniProt Q9H1R3)
T26 construct: purchased Reaction Biology Corp
Procedure: as §1

MRCKb/CDC42BPB = molecular target: T27, MRCKb/CDC42BPB (Homo sapiens, UniProt Q9Y5S2)
T27 construct: purchased Reaction Biology Corp
Procedure: as §1

MST1/STK4 = molecular target: T28, MST1/STK4 (Homo sapiens, UniProt Q13043)
T28 construct: purchased Reaction Biology Corp
T28 sequence (Q13043 whole entry): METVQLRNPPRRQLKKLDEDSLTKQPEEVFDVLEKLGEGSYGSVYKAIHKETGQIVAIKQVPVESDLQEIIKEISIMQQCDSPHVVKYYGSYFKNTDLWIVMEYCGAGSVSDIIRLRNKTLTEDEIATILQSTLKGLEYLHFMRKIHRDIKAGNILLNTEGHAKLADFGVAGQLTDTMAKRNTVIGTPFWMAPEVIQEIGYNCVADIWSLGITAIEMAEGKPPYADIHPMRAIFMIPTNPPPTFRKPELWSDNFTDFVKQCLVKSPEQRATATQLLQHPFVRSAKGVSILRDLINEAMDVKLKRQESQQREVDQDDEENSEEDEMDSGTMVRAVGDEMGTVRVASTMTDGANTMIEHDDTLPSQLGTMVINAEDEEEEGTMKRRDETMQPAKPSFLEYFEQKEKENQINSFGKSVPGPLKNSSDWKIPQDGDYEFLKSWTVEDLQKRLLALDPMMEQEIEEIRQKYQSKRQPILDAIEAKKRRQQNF
Procedure: as §1

MST4 = molecular target: T29, MST4 (Homo sapiens, UniProt Q9P289)
T29 construct: purchased Reaction Biology Corp
Procedure: as §1

MYO3b = molecular target: T30, MYO3b (Homo sapiens, UniProt Q8WXR4)
T30 construct: purchased Reaction Biology Corp
Procedure: as §1

NEK5 = molecular target: T31, NEK5 (Homo sapiens, UniProt Q6P3R8)
T31 construct: purchased Reaction Biology Corp
Procedure: as §1

NEK7 = molecular target: T32, NEK7 (Homo sapiens, UniProt Q8TDX7)
T32 construct: purchased Reaction Biology Corp
T32 sequence (Q8TDX7 whole entry): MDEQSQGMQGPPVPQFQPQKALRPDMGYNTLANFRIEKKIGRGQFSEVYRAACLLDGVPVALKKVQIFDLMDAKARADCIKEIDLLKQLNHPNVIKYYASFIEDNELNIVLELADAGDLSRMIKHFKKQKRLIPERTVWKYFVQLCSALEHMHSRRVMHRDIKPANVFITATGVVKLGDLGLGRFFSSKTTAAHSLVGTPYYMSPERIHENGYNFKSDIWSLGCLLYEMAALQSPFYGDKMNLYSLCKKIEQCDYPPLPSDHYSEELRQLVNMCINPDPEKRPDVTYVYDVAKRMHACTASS
Procedure: as §1

PKA = molecular target: T33, PKA (Homo sapiens, UniProt P17612)
T33 construct: purchased Reaction Biology Corp
Procedure: as §1

PKCnu/PRKD3 = molecular target: T34, PKCnu/PRKD3 (Homo sapiens, UniProt O94806)
T34 construct: purchased Reaction Biology Corp
T34 sequence (O94806 whole entry): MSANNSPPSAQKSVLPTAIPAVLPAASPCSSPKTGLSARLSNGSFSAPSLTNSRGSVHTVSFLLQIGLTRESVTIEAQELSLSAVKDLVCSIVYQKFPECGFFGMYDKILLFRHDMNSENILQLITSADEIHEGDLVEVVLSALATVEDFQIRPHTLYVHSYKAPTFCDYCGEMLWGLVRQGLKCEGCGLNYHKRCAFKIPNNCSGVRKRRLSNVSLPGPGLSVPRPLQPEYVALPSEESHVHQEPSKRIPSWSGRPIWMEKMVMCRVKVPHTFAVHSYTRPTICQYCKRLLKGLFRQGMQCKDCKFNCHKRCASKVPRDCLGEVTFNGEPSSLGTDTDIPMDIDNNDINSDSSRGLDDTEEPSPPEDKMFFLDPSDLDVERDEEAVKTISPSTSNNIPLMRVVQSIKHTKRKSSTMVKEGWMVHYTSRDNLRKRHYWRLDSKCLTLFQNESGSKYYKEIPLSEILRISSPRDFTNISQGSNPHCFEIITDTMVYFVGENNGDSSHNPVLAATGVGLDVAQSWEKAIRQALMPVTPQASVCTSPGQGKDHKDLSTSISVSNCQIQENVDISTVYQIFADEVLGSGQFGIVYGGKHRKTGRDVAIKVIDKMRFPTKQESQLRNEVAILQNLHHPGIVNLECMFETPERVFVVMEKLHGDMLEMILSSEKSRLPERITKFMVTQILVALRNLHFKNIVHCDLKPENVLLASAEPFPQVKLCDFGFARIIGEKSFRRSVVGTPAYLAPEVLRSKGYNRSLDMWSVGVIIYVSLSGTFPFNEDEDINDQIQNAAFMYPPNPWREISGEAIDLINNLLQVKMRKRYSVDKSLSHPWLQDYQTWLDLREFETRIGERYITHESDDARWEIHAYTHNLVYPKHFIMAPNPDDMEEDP
Procedure: as §1

RIPK2 = molecular target: T35, RIPK2 (Homo sapiens, UniProt O43353)
T35 construct: purchased Reaction Biology Corp
T35 sequence (O43353 whole entry): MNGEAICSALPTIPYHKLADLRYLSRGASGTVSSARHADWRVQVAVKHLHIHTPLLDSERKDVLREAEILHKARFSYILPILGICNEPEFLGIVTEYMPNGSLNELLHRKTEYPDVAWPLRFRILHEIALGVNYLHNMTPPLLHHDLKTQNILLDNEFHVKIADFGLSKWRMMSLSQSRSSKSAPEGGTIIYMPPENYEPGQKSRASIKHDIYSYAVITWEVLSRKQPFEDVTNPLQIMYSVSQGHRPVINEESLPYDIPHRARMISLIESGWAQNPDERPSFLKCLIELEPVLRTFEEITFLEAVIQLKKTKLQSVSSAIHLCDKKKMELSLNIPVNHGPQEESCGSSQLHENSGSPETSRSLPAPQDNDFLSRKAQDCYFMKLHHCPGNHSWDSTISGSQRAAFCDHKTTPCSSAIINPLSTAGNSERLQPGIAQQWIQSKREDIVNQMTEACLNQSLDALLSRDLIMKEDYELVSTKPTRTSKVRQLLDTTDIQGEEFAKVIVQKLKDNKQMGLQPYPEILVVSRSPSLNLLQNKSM
Procedure: as §1

ROS/ROS1 = molecular target: T36, ROS/ROS1 (Homo sapiens, UniProt P08922)
T36 construct: purchased Reaction Biology Corp
Procedure: as §1

RSK2 = molecular target: T37, RSK2 (Homo sapiens, UniProt P51812)
T37 construct: purchased Reaction Biology Corp
T37 sequence (P51812 whole entry): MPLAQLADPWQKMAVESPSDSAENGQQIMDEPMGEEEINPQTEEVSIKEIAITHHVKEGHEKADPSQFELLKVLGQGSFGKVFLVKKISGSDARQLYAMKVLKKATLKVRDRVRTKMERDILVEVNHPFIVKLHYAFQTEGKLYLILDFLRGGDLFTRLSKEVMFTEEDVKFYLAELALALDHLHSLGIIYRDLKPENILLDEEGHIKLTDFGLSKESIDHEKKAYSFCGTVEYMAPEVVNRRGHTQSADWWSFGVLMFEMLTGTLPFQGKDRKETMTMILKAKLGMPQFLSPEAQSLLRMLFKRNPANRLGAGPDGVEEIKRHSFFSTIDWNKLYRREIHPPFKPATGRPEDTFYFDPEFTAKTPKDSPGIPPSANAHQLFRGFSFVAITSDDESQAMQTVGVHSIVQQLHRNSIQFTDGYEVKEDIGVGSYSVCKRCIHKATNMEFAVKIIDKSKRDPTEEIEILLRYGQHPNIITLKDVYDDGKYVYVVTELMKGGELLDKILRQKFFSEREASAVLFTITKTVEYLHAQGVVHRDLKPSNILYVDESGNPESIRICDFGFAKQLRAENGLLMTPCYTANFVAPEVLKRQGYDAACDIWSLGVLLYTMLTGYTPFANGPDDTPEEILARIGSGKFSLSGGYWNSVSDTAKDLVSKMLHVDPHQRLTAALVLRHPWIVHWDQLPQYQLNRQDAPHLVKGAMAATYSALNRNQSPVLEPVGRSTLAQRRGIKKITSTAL
Procedure: as §1

SNRK = molecular target: T38, SNRK (Homo sapiens, UniProt Q9NRH2)
T38 construct: purchased Reaction Biology Corp
Procedure: as §1

STK25/YSK1 = molecular target: T39, STK25/YSK1 (Homo sapiens, UniProt O00506)
T39 construct: purchased Reaction Biology Corp
Procedure: as §1

TAOK2/TAO1 = molecular target: T40, TAOK2/TAO1 (Homo sapiens, UniProt Q9UL54)
T40 construct: purchased Reaction Biology Corp
T40 sequence (Q9UL54 whole entry): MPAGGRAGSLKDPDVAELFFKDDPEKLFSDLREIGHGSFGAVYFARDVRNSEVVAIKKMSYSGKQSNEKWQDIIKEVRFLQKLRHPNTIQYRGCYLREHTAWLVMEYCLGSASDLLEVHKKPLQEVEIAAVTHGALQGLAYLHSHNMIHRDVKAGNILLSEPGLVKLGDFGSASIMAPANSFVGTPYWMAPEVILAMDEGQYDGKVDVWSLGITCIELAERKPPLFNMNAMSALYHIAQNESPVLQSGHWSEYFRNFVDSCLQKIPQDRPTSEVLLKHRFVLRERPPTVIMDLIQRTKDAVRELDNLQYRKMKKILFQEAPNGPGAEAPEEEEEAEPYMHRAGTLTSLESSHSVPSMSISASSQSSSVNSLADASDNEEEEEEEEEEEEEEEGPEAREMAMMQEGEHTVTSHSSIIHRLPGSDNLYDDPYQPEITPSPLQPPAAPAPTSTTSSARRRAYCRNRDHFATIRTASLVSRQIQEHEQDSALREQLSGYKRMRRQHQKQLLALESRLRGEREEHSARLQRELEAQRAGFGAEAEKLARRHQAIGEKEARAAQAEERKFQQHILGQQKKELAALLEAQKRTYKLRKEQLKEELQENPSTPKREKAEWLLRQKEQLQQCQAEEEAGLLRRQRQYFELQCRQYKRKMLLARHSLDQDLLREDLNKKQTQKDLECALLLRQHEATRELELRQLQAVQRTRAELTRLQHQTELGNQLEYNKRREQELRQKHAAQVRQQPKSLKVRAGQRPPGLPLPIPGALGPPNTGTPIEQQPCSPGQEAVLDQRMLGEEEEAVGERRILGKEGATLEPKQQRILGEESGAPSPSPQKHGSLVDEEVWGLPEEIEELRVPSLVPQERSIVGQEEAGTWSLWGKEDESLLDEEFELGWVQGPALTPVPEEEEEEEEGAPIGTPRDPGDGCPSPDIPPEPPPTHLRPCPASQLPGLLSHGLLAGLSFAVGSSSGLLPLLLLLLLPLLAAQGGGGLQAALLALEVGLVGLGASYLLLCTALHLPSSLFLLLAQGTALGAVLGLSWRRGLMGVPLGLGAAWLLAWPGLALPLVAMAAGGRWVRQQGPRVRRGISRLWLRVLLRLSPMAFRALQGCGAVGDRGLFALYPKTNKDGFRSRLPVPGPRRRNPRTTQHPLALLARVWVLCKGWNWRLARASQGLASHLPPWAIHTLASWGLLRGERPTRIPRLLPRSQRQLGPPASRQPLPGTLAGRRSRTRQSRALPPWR
Procedure: as §1

TBK1 = molecular target: T41, TBK1 (Homo sapiens, UniProt Q9UHD2)
T41 construct: purchased Reaction Biology Corp
Procedure: as §1

ZIPK/DAPK3 = molecular target: T42, ZIPK/DAPK3 (Homo sapiens, UniProt O43293)
T42 construct: purchased Reaction Biology Corp
Procedure: as §1

**Q.** Which results are given for `Cc1ccc(Nc2ncc3c(n2)N(C)C(=O)N(c2cc(C(=O)N[C@H](C(=O)N4CCC[C@H]4C(=O)NC(C)(C)C(=O)N[C@@H](CC(C)C)C(=O)N(C)C)C(C)C)ccc2C)C3)cn1` [7a, (S)-N-(1-(((S)-1-(dimethylamino)-4-methyl-1-oxopentan-2-yl)amino)-2-methyl-1-oxopropan-2-yl)-1-((4-methyl-3-(1-methyl-7-((6-methylpyridin-3-yl)amino)-2-oxo-1,4-dihydropyrimido[4,5-d]pyrimidin-3(2H)-yl)benzoyl)-L-valyl)pyrrolidine-2-carboxamide] (X1-VP[Aib]L-NMe2)?
**A.** inhibition at 1 µM (Abl1): 63%; inhibition at 1 µM (Aurora A): 0%; inhibition at 1 µM (BRK): 0%; inhibition at 1 µM (CAMK1g): 7%; inhibition at 1 µM (CDC7/DBF4): 0%; inhibition at 1 µM (CDK2/Cyclin A1): 1%; inhibition at 1 µM (CDK2/cyclin E): 0%; inhibition at 1 µM (CDK5/P25): 0%; inhibition at 1 µM (CK1a1L): 0%; inhibition at 1 µM (CK2a): 5%; inhibition at 1 µM (EPHA4): 29%; inhibition at 1 µM (EPHA5): 23%; inhibition at 1 µM (ERBB2/HER2): 10%; inhibition at 1 µM (ERK1): 7%; inhibition at 1 µM (FLT1/VEGFR1): 9%; inhibition at 1 µM (FRK/PTK5): 15%; inhibition at 1 µM (GRK2): 0%; inhibition at 1 µM (GRK7): 0%; inhibition at 1 µM (HCK): 38%; inhibition at 1 µM (IRR/INSRR): 5%; inhibition at 1 µM (MAPKAPK5/PRAK): 8%; inhibition at 1 µM (MARK1): 0%; inhibition at 1 µM (MARK4): 0%; inhibition at 1 µM (MEKK1): 3%; inhibition at 1 µM (MEKK3): 11%; inhibition at 1 µM (MLCK2/MYLK2): 0%; inhibition at 1 µM (MRCKb/CDC42BPB): 0%; inhibition at 1 µM (MST1/STK4): 5%; inhibition at 1 µM (MST4): 0%; inhibition at 1 µM (MYO3b): 0%; inhibition at 1 µM (NEK5): 0%; inhibition at 1 µM (NEK7): 2%; inhibition at 1 µM (PKA): 6%; inhibition at 1 µM (PKCnu/PRKD3): 0%; inhibition at 1 µM (RIPK2): 1%; inhibition at 1 µM (ROS/ROS1): 9%; inhibition at 1 µM (RSK2): 0%; inhibition at 1 µM (SNRK): 9%; inhibition at 1 µM (STK25/YSK1): 3%; inhibition at 1 µM (TAOK2/TAO1): 4%; inhibition at 1 µM (TBK1): 0%; inhibition at 1 µM (ZIPK/DAPK3): 6%
